Each structure is given as a SMILES string.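 Cultured in 96-well plates, cells were exposed to test compound for 48 hours across five concentrations. At the TGI there is no net growth.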 Where a SMILES comes first, the peptide text is derived from it. [ ]: non-standard residue; d: D form. ΔPro = O=C(O)[CH]1C=CCN1

Among the data in PubChem BioAssay (NCI) are TGI values, retold here.

Test systems include SK-MEL-2 melanoma; KM12 colon; DLD-1 colon; KM20L2 colon; HOP-18 NSCLC; DMS 273 small cell lung; M19-MEL melanoma; SNB-78 CNS; DMS 114 small cell lung; LXFL 529 NSCLC.
Assay in all cases: growth of human tumour cells (NCI), 48 h

Regarding `O=Cc1ccc2ccocc1-2`, the TGI in the test with SK-MEL-2 melanoma and in the test on KM12 colon was greater than 100 µM in each case.
In the test with KM12 colon, `Clc1cccc(-c2nc3cccc4c3n2Cc2ncccc2-4)c1` returned a TGI greater than 100 µM.
In the case of `CNc1cc([N+](=O)[O-])ccc1C(=O)N1CCC[C@H]1CO`, the TGI with SK-MEL-2 melanoma and with KM12 colon was greater than 100 µM in each case.
`O=C1C=C(c2ccccc2)OC1C1Sc2ccccc2NC1=O` (stereo not drawn): the results for the TGI in the test on SK-MEL-2 melanoma and with KM12 colon were greater than 41.1 µM and greater than 100 µM, respectively.
On to `Cc1ccc(Sc2ccccc2C23OC(C)(C4C(=O)N(c5ccccc5)C(=O)C42)N(C)C3=O)cc1` (stereo not drawn), for which the TGI in the test with SK-MEL-2 melanoma and in the test on KM12 colon was greater than 100 µM throughout.
Turning to `CC(Br)CN1CCOCC1` (stereo not drawn), the TGI in the test with SK-MEL-2 melanoma and in the test with KM12 colon was greater than 100 µM in each case.
Consider `O=C(c1cscc1CCc1ccccc1)c1cscc1CCc1ccccc1`, for which the TGI in the test with SK-MEL-2 melanoma and in the test with KM12 colon was greater than 100 µM in each case.
For the molecule `COc1ccccc1-n1nnc2c(N)nc(N)nc21`, the TGI in the test with SK-MEL-2 melanoma and with KM12 colon was greater than 100 µM in each case.
In the case of `O=C(O)C1C=CCN1C(=O)C1C=CCN1C(=O)C1C=CCN1` (stereo not drawn) (H-[ΔPro]-[ΔPro]-[ΔPro]-OH; configuration not given here), the TGI in the test with SK-MEL-2 melanoma and in the test with KM12 colon was greater than 100 µM in each case.
On to `C=C1CC[C@@H]2C13[C@@H]1[C@H](CC(=O)[C@@]23C)C1(C)C` (stereo partly drawn), for which the TGI with SK-MEL-2 melanoma and in the test on KM12 colon was greater than 100 µM throughout.
Turning to `CCN(CC)C1Oc2cc3c(cc2C(c2cc(OC)c(O)c(OC)c2)C1C)OCO3` (stereo not drawn), the TGI in the test with SK-MEL-2 melanoma is greater than 95.7 µM; with KM12 colon, 22.5 µM.
As for `[N-]=[N+]=NC1C(O)C(CO)OC1n1ccc(N)nc1=O` (stereo not drawn), the TGI was greater than 585 µM in the test with SK-MEL-2 melanoma and greater than 625 µM in the test on KM12 colon.
The like results for `COc1ccc(Cc2cc(Cc3ccc(OC)cc3)cc(Cc3ccc(OC)cc3)c2)cc1` were, in that order, greater than 100 µM and greater than 100 µM.
`COC(=O)/C=C/CCC#Cc1ccccc1C#CCC/C=C/C(=O)OC`: the TGI in the test on KM12 colon was greater than 100 µM.
On the same count and under the same terms, then `Cc1cc(C)c(NS(=O)c2cccc(C(F)(F)F)c2)c(C)c1` (stereo not drawn), with greater than 100 µM.
In the case of `CC(=O)OCC1(C)C(O)CCC2(C)C1CCC1CC3CC12CCC3(O)CO` (stereo not drawn), the TGI in the test on SK-MEL-2 melanoma and in the test with KM12 colon was greater than 100 µM in each case.
For `CCO/C(O)=C(/C(=N)N1CCOCC1)C(=O)NC(C)C`, the TGI with SK-MEL-2 melanoma and in the test on KM12 colon was greater than 100 µM throughout.
In the case of `C=C1c2nc3ccccc3n2C=C(c2ccccc2)N1c1ccc(Cl)cc1`, the TGI in the test on SK-MEL-2 melanoma was greater than 100 µM; in the test on KM12 colon, 66.3 µM.
Turning to `COc1ccc(N2C(=O)C(Cl)C2c2cc3cc(Br)ccc3nc2Cl)cc1` (stereo not drawn), the TGI in the test with SK-MEL-2 melanoma was 11.1 µM; in the test on KM12 colon, greater than 25 µM.
In the case of `CN1CCN(c2cc3nc(-c4ccc(Cl)cc4)[nH]c3cc2F)CC1`, the values for the TGI with SK-MEL-2 melanoma and with KM12 colon were 34.5 µM and greater than 45.2 µM, respectively.
For `Cc1cc(N2CCOCC2)nc2ccc(Cc3ccc4nc(N5CCOCC5)cc(C)c4c3)cc12`, the TGI in the test with SK-MEL-2 melanoma and in the test on KM12 colon was greater than 100 µM throughout.
On to `CC1=NN(c2ccc(S(=O)(=O)O)cc2)C2(C1)C(Cl)C(=O)N2c1nc2ccccc2s1` (stereo not drawn), for which the TGI with SK-MEL-2 melanoma and with KM12 colon was greater than 100 µM throughout.
Regarding `c1ccc2sc(SSSc3nc4ccccc4s3)nc2c1`, the TGI with SK-MEL-2 melanoma and in the test with KM12 colon was greater than 100 µM in each case.
Take `Cc1ccc(N2C(=O)C3c4[nH]c5ccc(C)cc5c4C4CCC(C(C)(C)C)CC4C3C2=O)cc1` (stereo not drawn): the TGI turned out to be 99.5 µM in the test with SK-MEL-2 melanoma and 62.4 µM in the test on KM12 colon.
As to `O=C(OCc1ccccc1)C(Cc1ccc(OCc2ccccc2)cn1)NC(=O)C(F)(F)F` (stereo not drawn), the TGI with KM12 colon was greater than 100 µM.
With `C=C(COCO)C(C)=O`, the TGI is 40.5 µM in the test with SK-MEL-2 melanoma and greater than 54.5 µM in the test on KM12 colon.
With `CC[C@H](C)[C@@H]([C@@H](CC(=O)N1CCC[C@H]1[C@H](OC)[C@@H](C)C(=O)NCCc1ccccc1)OC)N(C)C(=O)C(NC(=O)[C@H](C(C)C)N(C)C)C(C)C` (stereo partly drawn), in the test on KM12 colon, the TGI is 0.00178 µM.
For the molecule `Cn1nnc2c(C(N)=S)ncn2c1=O`, the TGI in the test on SK-MEL-2 melanoma and in the test on KM12 colon was greater than 100 µM throughout.
With `C[N+](C)(C)CC(=O)N/N=C(\Cc1nc2ccc([N+](=O)[O-])cc2[nH]c1=O)C(=O)Nc1nc2ccc([N+](=O)[O-])cc2s1`, the TGI with SK-MEL-2 melanoma and with KM12 colon was greater than 100 µM in each case.
As to `CCOC(=O)CN1C(=O)NC(C)(c2ccccc2)C1=O` (stereo not drawn), the TGI in the test with SK-MEL-2 melanoma and in the test with KM12 colon was greater than 100 µM each time.
Turning to `C/C=C/c1cc2c(cc1O)CC[C@@H]1[C@@H]2CC[C@]2(C)[C@@H](O)CC[C@@H]12`, the TGI in the test with SK-MEL-2 melanoma is 16.7 µM; with KM12 colon, 13.4 µM.
`COC(=O)[C@@H]1CN(C(=O)CCc2ccccc2)C(=O)N1`: the TGI in the test on SK-MEL-2 melanoma and in the test with KM12 colon was greater than 100 µM each time.
`COc1cccc(NC(=O)CSc2nnc(Cc3ccccc3)o2)c1`: the TGI with DLD-1 colon, in the test on KM20L2 colon, in the test on SK-MEL-2 melanoma, with HOP-18 NSCLC, in the test on DMS 273 small cell lung and in the test with M19-MEL melanoma was greater than 100 µM throughout. The TGI in the test with SNB-78 CNS, with DMS 114 small cell lung, with KM12 colon and in the test with LXFL 529 NSCLC was greater than 100 µM throughout.
Regarding `C=C(Cl)/C(=C\Cl)CCC(Cl)C(C)C` (stereo not drawn) (tested in a mixture with another compound), the TGI came to 27.1 µM in the test with SK-MEL-2 melanoma and 27.6 µM in the test on KM12 colon.
On the same counts, the results for `CC(=O)Nc1cc(Cl)cc(Cl)c1O` are greater than 100 µM and greater than 100 µM.
